These results are taken from US11504382B2, “Tricyclic inhibitors of Hepatitis B virus” (Antios Therapeutics, Inc., priority 2018, dated 2022).

Read-outs that look alike come from different tables or passages of the source.

In this test the test system is HBV. Put plainly: HBV inhibition assay in HepAD38 cells (extracellular HBV DNA by direct qPCR). The test is classed as cell-based, Hepatitis B virus. The following applies: 96 hours; for EC50: 8-point dose-response curve, read-out: HBV inh EC50. A general note: In qPCR the cycle at which signal appears reflects the starting amount.
Setting [1] is: 0.1 μM, relative to non-treated reference.
Setting [2] is: 0.05 μM, relative to non-treated reference.
Where [3] appears, read: Hepatitis B virus, relative to non-treated reference, read-out: Anti HBV Activity (conc μM).

On to `Cn1cc2c(c1C(=O)Nc1ccc(F)c(F)c1)OCC1CCCC1NS2(=O)=O` (single isomer, unassigned) [Example E35, N-(3,4-difluorophenyl)-2-methyl-5a,6,7,8,8a,9-hexahydro-2H,5H-cyclopenta[f]pyrrolo[3,4-b][1,4,5]oxathiazocine-1-carboxamide 4,4-dioxide (Chiral 5aS,8aR or 5aR,8aS - Stereochemistry unknown)], for which the EC50 was < 1 µM. For the same molecule, the “Anti HBV Activity (conc μM)” value under setting [1] is “A (0.1) (HBV inhibition greater than 50% at the concentration indicated in the table)”.
Consider `CCOC(=O)N1CC2COc3c(cn(C)c3C(=O)Nc3ccc(F)c(F)c3)S(=O)(=O)NC2C1` (single isomer, unassigned) [Example E37, Ethyl 8-((3,4-difluorophenyl)carbamoyl)-7-methyl-3a,4,10,10a-tetrahydro-1H,7H-dipyrrolo[3,4-b:3′,4′-f][1,4,5]oxathiazocine-2(3H)-carboxylate 5,5-dioxide (Chiral 3aS,10aS or 3aR,10aR - Stereochemistry unknown)], for which the “Anti HBV Activity (conc μM)” value under setting [2] is recorded as “A (0.05) (HBV inhibition greater than 50% at the concentration indicated in the table)”.
With `CCOC(=O)N1CC2COc3c(cn(C)c3C(=O)Nc3ccc(F)c(F)c3)S(=O)(=O)NC2C1` (single isomer, unassigned) [Example E38, Ethyl 8-((3,4-difluorophenyl)carbamoyl)-7-methyl-3a,4,10,10a-tetrahydro-1H,7H-dipyrrolo[3,4-b:3′,4′-f][1,4,5]oxathiazocine-2(3H)-carboxylate 5,5-dioxide (Chiral 3aS,10aS or 3aR,10aR - Stereochemistry unknown)], the “Anti HBV Activity (conc μM)” value under setting [1] was “B (0.1) (HBV inhibition less than 50% at the concentration indicated in the table)”.
On to `CCOC(=O)N1C[C@H]2COc3c(cn(C)c3C(=O)Nc3ccc(F)c(C)c3)S(=O)(=O)N[C@H]2C1` (single isomer, unassigned) [Example E39], for which, for the setting “Hepatitis B virus, 0.05 μM, relative to non-treated reference, read-out: Anti HBV Activity (conc μM)”, the inhibition at 0.05 µM was > 50%. For the same molecule, for the setting “Hepatitis B virus”, the EC50 is < 1 µM.
Turning to `CCOC(=O)N1CC2COc3c(cn(C)c3C(=O)Nc3ccc(F)c(C(F)F)c3)S(=O)(=O)NC2C1` (single isomer, unassigned) [Example E43, Ethyl 8-((3-(difluoromethyl)-4-fluorophenyl)carbamoyl)-7-methyl-3a,4,10,10a-tetrahydro-1H,7H-dipyrrolo[3,4-b:3′,4′-f][1,4,5]oxathiazocine-2(3H)-carboxylate 5,5-dioxide (Chiral 3aS,10aS or 3aR,10aR - Stereochemistry unknown)], the EC50 is < 1 µM. Also, the “Anti HBV Activity (conc μM)” value under setting [2] is “A (0.05) (HBV inhibition greater than 50% at the concentration indicated in the table)”.
As for `CCOC(=O)N1CC2COc3c(cn(C)c3C(=O)Nc3ccc(F)c(C(F)F)c3)S(=O)(=O)NC2C1` (single isomer, unassigned) [Example E44, Ethyl 8-((3-(difluoromethyl)-4-fluorophenyl)carbamoyl)-7-methyl-3a,4,10,10a-tetrahydro-1H,7H-dipyrrolo[3,4-b:3′,4′-f][1,4,5]oxathiazocine-2(3H)-carboxylate 5,5-dioxide (Chiral 3aS,10aS or 3aR,10aR - Stereochemistry unknown)], the “Anti HBV Activity (conc μM)” value under setting [1] is listed as “B (0.1) (HBV inhibition less than 50% at the concentration indicated in the table)”.
In the case of `CCOC(=O)N1CC2COc3c(cn(C)c3C(=O)Nc3ccc(F)c(C#N)c3)S(=O)(=O)NC2C1` (single isomer, unassigned) [Example E45, Ethyl 8-((3-cyano-4-fluorophenyl)carbamoyl)-7-methyl-3a,4,10,10a-tetrahydro-1H,7H-dipyrrolo[3,4-b:3′,4′-f][1,4,5]oxathiazocine-2(3H)-carboxylate 5,5-dioxide (Chiral 3aS,10aS or 3aR,10aR - Stereochemistry unknown)], the “Anti HBV Activity (conc μM)” value under setting [2] is listed as “A (0.05) (HBV inhibition greater than 50% at the concentration indicated in the table)”.
As to `CCOC(=O)N1CC2COc3c(cn(C)c3C(=O)Nc3ccc(F)c(C#N)c3)S(=O)(=O)NC2C1` (single isomer, unassigned) [Example E46, Ethyl 8-((3-cyano-4-fluorophenyl)carbamoyl)-7-methyl-3a,4,10,10a-tetrahydro-1H,7H-dipyrrolo[3,4-b:3′,4′-f][1,4,5]oxathiazocine-2(3H)-carboxylate 5,5-dioxide (Chiral 3aS,10aS or 3aR,10aR - Stereochemistry unknown)], the “Anti HBV Activity (conc μM)” value under setting [1] is given as “B (0.1) (HBV inhibition less than 50% at the concentration indicated in the table)”.
With `CCOC(=O)N1CC2NS(=O)(=O)c3cn(C)c(C(=O)Nc4cc(F)c(F)c(F)c4)c3OCC2(C)C1` (single isomer, unassigned) [Example E91, Ethyl 7,10a-dimethyl-8-((3,4,5-trifluorophenyl)carbamoyl)-3a,4,10,10a-tetrahydro-1H,7H-dipyrrolo[3,4-b:3′,4′-f][1,4,5]oxathiazocine-2(3H)-carboxylate 5,5-dioxide (Chiral 3aS,10aS or 3aR,10aR - Stereochemistry unknown)], the EC50 is < 1 µM.
For `CCOC(=O)N1CC2NS(=O)(=O)c3cn(C)c(C(=O)Nc4cc(F)c(F)c(F)c4)c3OCC2(C)C1` (single isomer, unassigned) [Example E92, Ethyl 7,10a-dimethyl-8-((3,4,5-trifluorophenyl)carbamoyl)-3a,4,10,10a-tetrahydro-1H,7H-dipyrrolo[3,4-b:3′,4′-f][1,4,5]oxathiazocine-2(3H)-carboxylate 5,5-dioxide (Chiral 3aS,10aS or 3aR,10aR - Stereochemistry unknown)], the EC50 was < 1 µM.
Still for that read-out and setting: the same measure for `CCOC(=O)N1CC2NS(=O)(=O)c3cn(C)c(C(=O)Nc4ccc(F)c(C)c4)c3OCC2(C)C1` (single isomer, unassigned) [Example E93, Ethyl 8-((4-fluoro-3-methylphenyl)carbamoyl)-7,10a-dimethyl-3a,4,10,10a-tetrahydro-1H,7H-dipyrrolo[3,4-b:3′,4′-f][1,4,5]oxathiazocine-2(3H)-carboxylate 5,5-dioxide (Chiral 3aS,10aS or 3aR,10aR - Stereochemistry unknown)]: < 1 µM.
The same measure, in the same setting: to `CCOC(=O)N1CC2NS(=O)(=O)c3cn(C)c(C(=O)Nc4ccc(F)c(C)c4)c3OCC2(C)C1` (single isomer, unassigned) [Example E94, Ethyl 8-((4-fluoro-3-methylphenyl)carbamoyl)-7,10a-dimethyl-3a,4,10,10a-tetrahydro-1H,7H-dipyrrolo[3,4-b:3′,4′-f][1,4,5]oxathiazocine-2(3H)-carboxylate 5,5-dioxide(Chiral 3aS,10aS or 3aR,10aR - Stereochemistryunknown)] belongs < 1 µM; to `Cc1nnc(C(=O)N2CC3NS(=O)(=O)c4cn(C)c(C(=O)Nc5ccc(F)c(C)c5)c4OCC3(C)C2)o1` (single isomer, unassigned) [Example E95, N-(4-fluoro-3-methylphenyl)-7,10a-dimethyl-2-(5-methyl-1,3,4-oxadiazole-2-carbonyl)-2,3,3a,4,10,10a-hexahydro-1H,7H-dipyrrolo[3,4-b:3′,4′-f][1,4,5]oxathiazocine-8-carboxamide 5,5-dioxide (Chiral 3aS,10aS or 3aR,10aR - Stereochemistry unknown)], < 1 µM; to `Cc1nnc(C(=O)N2CC3NS(=O)(=O)c4cn(C)c(C(=O)Nc5ccc(F)c(C)c5)c4OCC3(C)C2)o1` (single isomer, unassigned) [Example E96, N-(4-fluoro-3-methylphenyl)-7,10a-dimethyl-2-(5-methyl-1,3,4-oxadiazole-2-carbonyl)-2,3,3a,4,10,10a-hexahydro-1H,7H-dipyrrolo[3,4-b:3′,4′-f][1,4,5]oxathiazocine-8-carboxamide 5,5-dioxide (Chiral 3aS,10aS or 3aR,10aR - Stereochemistry unknown)], < 1 µM.
`Cc1cc(NC(=O)c2c3c(cn2C)S(=O)(=O)N[C@@H]2CN(C(=O)OC(C)(C)C)C[C@H]2CO3)ccc1F` (single isomer, unassigned) [Example E151]: the EC50 (Hepatitis B virus) is < 1 µM.
Still for that read-out and setting: to `Cc1cc(NC(=O)c2c3c(cn2C)S(=O)(=O)N[C@H]2CN(C(=O)OC(C)(C)C)C[C@@H]2CO3)ccc1F` (single isomer, unassigned) [Example E152] belongs < 1 µM.
Same read-out and setting: the same measure for `Cc1nnc(C(=O)N2C[C@H]3COc4c(cn(C)c4C(=O)Nc4ccc(F)c(C)c4)S(=O)(=O)N[C@@H]3C2)o1` (single isomer, unassigned) [Example E153]: < 1 µM; for `Cc1nnc(C(=O)N2C[C@@H]3COc4c(cn(C)c4C(=O)Nc4ccc(F)c(C)c4)S(=O)(=O)N[C@H]3C2)o1` (single isomer, unassigned) [Example E154]: < 1 µM.
In the case of `Cn1cc2c(c1C(=O)Nc1ccc(F)c(F)c1)OCC1CCCCN1S2(=O)=O` (stereo not drawn) [Example E1, N-(3,4-difluorophenyl)-2-methyl-6,7,8,9,9a,10-hexahydro-2H-pyrido[1,2-e]pyrrolo[3,4-b][1,4,5]oxathiazepine-1-carboxamide 4,4-dioxide], the inhibition at 1 µM under setting [3] was < 50%. Further, the EC50 (Hepatitis B virus) is > 1 µM.
For `Cn1cc2c(c1C(=O)Nc1ccc(F)c(F)c1)NCC1CCCCN1S2(=O)=O` (stereo not drawn) [Example E2, N-(3,4-difluorophenyl)-2-methyl-2,6,7,8,9,9a,10,11-octahydropyrido[1,2-b]pyrrolo[3,4-f][1,2,5]thiadiazepine-1-carboxamide 4,4-dioxide], under setting [3], the inhibition at 1 µM is < 50%.
For the molecule `Cn1cc2c(c1C(=O)Nc1ccc(F)c(F)c1)OCC1CCN1S2(=O)=O` (stereo not drawn) [Example E3, N-(3,4-difluorophenyl)-2-methyl-6,7,7a,8-tetrahydro-2H-azeto[1,2-e]pyrrolo[3,4-b][1,4,5]oxathiazepine-1-carboxamide 4,4-dioxide], under setting [3], the inhibition at 1 µM is > 50%. Moreover, the EC50 (Hepatitis B virus) is < 1 µM.
On to `Cn1cc2c(c1C(=O)Nc1ccc(F)c(F)c1)OC[C@H]1C[C@H](C1)NS2(=O)=O` [Example E5], for which, under setting [3], the inhibition at 1 µM is < 50%.

The term EC50 denotes the concentration giving half of the maximal effect.
